Measured values: patent US12421249B2, “Inhibitors of APOL1 and methods of using same” (Vertex Pharmaceuticals Incorporated, priority 2020, dated 2025)
pIC50: −log10 of the molar value. Like-named read-outs stand apart in the source and are kept apart here.

Experiments:
APOL1 G1 = target: T1, APOL1 G1 (Homo sapiens, UniProt O14791, I384M/S342G); assay: Trypanosoma brucei brucei Lysis Assay Using APOL1 Recombinant Protein (AlamarBlue viability readout); assay type: cell-based; conditions: for pIC50: IP50 = IC50 for cell proliferation, read-out: Trypanosome Assay IP50; for Emax: read-out: Trypanosome Assay Max Activity (%)
T1 sequence (O14791 28-398 S342G/I384M): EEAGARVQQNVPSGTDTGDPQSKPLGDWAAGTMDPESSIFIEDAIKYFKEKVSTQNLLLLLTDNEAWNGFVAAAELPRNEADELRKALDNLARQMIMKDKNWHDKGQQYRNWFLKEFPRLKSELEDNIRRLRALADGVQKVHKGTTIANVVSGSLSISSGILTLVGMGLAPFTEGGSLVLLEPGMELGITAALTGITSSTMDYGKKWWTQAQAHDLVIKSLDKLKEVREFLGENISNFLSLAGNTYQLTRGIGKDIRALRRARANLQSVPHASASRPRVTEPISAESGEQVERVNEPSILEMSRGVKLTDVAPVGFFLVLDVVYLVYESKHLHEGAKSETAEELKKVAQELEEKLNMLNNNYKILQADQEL
Text: Trypanosoma brucei brucei is a blood stream parasite to which human, gorillas, and baboons are immune due to the presence of the APOL1 protein in their HDL particles. The protein is uptaken by the parasite via the TbHpHb receptor located in its flagellar pocket and is bonded by the Hpr protein contained in the HDL particles which triggers the receptor endocytosis by the parasite.
Following endocytosis, the formed vesicle containing the HDL particle matures from early to late endosome, and subsequently to lysosome. The concomitant pH change in the lumen of the vesicle triggers the insertion of the APOL1 protein into the membrane of the late endosome/lysosome and hereby triggers lysosomal membrane permeabilization and as a further downstream event, trypanosome lysis. Trypanosoma brucei brucei is sensitive to lysis by all three APOL1 variants (G0, G1, and G2).
The Trypanosoma brucei brucei lysis assay is a lysis assay of the parasite using recombinant APOL1 protein variant followed by a fluorescent detection method of viability by the addition of AlamarBlue reagent to the assay well, a general metabolic redox indicator (AlamarBlue assay).
Briefly, the AlamarBlue active compound, resazurin, a blue, water soluble, non-toxic and cell permeable molecule, which can be followed by absorbance, is reduced by various metabolic pathways into resorufin, a red compound which can be followed by either absorbance or fluorescence. The assay allows the calculation of the percent viability (percent of living Trypanosomes remaining in each well) at the end of a lysis relative to the untreated condition by interpolation of fluorescent values (FLU) on a standard curve with a known amount of seeded trypanosome/well.
Trypanosoma brucei brucei (ATCC, Cat. No. PRA-382)
• Lister 427 VSG 221 bloodstream form.
Equipment • E1-Clip Tip pipette 12 channel adjustable 2-125 μL, Cat. No. 4672070BT • ThermoFisher MultiDrop 384, Cat. No. 5840300 • Multidrop • Agilent Bravo, Cat. No. G5409A • Bravo • SpectraMax M5 Assay Ready Plates (ARPs) • ARPs comes in two formats: • […] final top concentration with a 2.5 fold dilution down. • […] final top concentration with a 3 fold dilution down. • Both have a 10 point Dose response. • 0.1% DMSO final in the Black Assay Plate. • Compounds are diluted 1000 fold in the Black Assay Plate. • Each plate is designed for 14 compounds in duplicate. • In the final Black Assay Plate: • Column 1: Media only (no APOL1) (100% viable) • Column 2-23: 0.05 μg/mL APOL1 (˜EC90) (10% viable with APOL1) • Column 24: 0.1 μg/mL APOL1 (EC100) (Approx. […] Step 2, Day 4 • Centrifuge at 800×g for 5 minutes at room temperature. • Resuspend in 1 mL media. • Make a 1:25 fold dilution (10 μL/240 μL media). • Count on a hemocytometer (after adding parasites). • Let sit for 1-2 minutes for the parasites to settle. • Count should be approximately 100 viable motile parasites/16 grid or approximately 25×10^6 parasites/flask. • Passage the parasites by adding 1×10^6 parasites/T75 flask in 20 mL media. • Passage the parasites by adding 2.33×10^6 parasites/T175 flask in 46.6 mL media. • For every T75 flask should make enough for approximately 1.5×384 well assay plates. • For every T175 flask should make enough for approximately 3.8×384 well assay plates. Step 3, Day 6 • Centrifuge at 800×g for 5 minutes. • Resuspend in 3 mL assay media (No phenol red, no FBS) per 75 starting flask. • Resuspend in 7 mL assay media (No phenol red, no FBS) per 175 flask • Make a 1:25 fold dilution. • Count by hemocytometer. • Every T75 flask set up should have approximately 75×10^6 parasites/flask (verify doubling time=8.7 hours±1 hour). • Every T175 flask set up should have approximately 175×10^6 parasites/flask (verify doubling time=8.7 hours±1 hour). • Require 46×10^6 parasites per 384 well plate (at 120,000 parasites per well). […]

APOL1 = target: T2, APOL1 (Homo sapiens, UniProt O14791); assay: Multi-Tox Assay (MultiTox-Fluor Multiplex Cytotoxicity Assay in tet-inducible APOL1 T-REx-HEK293 cells; Table 46 does not say which APOL1 variant G0/G1/G2); assay type: cell-based; conditions: APOL1 variant not given; for pIC50: IP50 = IC50 for cell proliferation
T2 sequence (O14791 1-398 S342G/I384M): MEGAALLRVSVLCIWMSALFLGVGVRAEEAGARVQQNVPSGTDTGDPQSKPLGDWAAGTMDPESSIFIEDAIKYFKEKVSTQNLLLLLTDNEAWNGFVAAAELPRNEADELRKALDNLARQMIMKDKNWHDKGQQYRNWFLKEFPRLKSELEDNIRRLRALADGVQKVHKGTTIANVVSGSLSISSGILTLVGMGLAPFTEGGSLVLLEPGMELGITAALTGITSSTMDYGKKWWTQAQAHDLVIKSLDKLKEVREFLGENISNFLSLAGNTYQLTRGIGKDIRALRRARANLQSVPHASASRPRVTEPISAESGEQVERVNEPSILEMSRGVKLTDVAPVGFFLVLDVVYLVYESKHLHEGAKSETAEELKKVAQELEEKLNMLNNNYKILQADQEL

| Compound | pIC50 (APOL1 G1; Trypanosome Assay) | Emax (APOL1 G1; Trypanosome Assay) | pIC50 (APOL1) | Emax (APOL1 G1) | Trypanosome Assay Max Activity (%) (APOL1 G1; Trypanosome Assay) | IC90 (APOL1) | Multi-Tox Assay Max Activity (%) (APOL1) |
| --- | --- | --- | --- | --- | --- | --- | --- |
| Cc1nn(CCO)cc1[C@@H]1C[C@]2(C[C@H](C)N1)OCCc1cc(Cl)sc12 (racemic) [Compound 158] | < 6.30 | 75.5% | < 6.30 | – | – | – | – |
| C[C@H]1C[C@@]2(C[C@@H](c3ccc4cn[nH]c4c3)N1)OCCc1cc(Cl)sc12 (racemic) [Compound 67] | > 7.30 | 105% | > 7.30 | – | – | – | – |
| C[C@@H]1CC2(C[C@H](C)N1)OCCc1cc(Cl)sc12 (single isomer, unassigned) [Compound 204] | 6.30 to 7.30 | – | 6.30 to 7.30 | 112% | – | – | – |
| C[C@H]1CC2(CC(c3cnn(C)c3)N1)OCC(O)c1cc(Cl)sc12 (single isomer, unassigned) [Compound 176] | > 7.30 | – | > 7.30 | – | 115.5% | < 0.05 µM | 100.0% |
| COc1ccc([C@@H]2C[C@]3(C[C@H](C)N2)OCCc2cc(Cl)sc23)cn1 (racemic) [Compound 49] | > 7.30 | 104% | > 7.30 | – | – | – | – |
| C[C@H]1CC2(C[C@@H](c3cn(C)nn3)N1)OCC(C)(C)c1sc(Cl)cc12 (stereo in doubt) [Compound 15] | > 7.30 | 101% | > 7.30 | – | – | – | 99.0% |
| C[C@H]1C[C@@]2(C[C@@H](c3c[nH]cn3)N1)OCCc1cc(Cl)sc12 (racemic) [Compound 85] | > 7.30 | – | > 7.30 | – | – | – | – |
| CCc1cc([C@@H]2C[C@]3(C[C@H](C)N2)OCCc2cc(Cl)sc23)on1 (stereo in doubt) [Compound 91] | > 7.30 | 110% | > 7.30 | – | – | – | – |
| CC1CC2(CC(C3CC3)N1)OCCc1cc(Cl)sc12 (mixture of isomers) [Compound 211, (2S,6S)-2-chloro-2′-cyclopropyl-6′-methyl-spiro[4,5-dihydrothieno[2,3-c]pyran-7,4′-piperidine]] | 6.30 to 7.30 | 113% | > 7.30 | – | – | 0.05 to 0.5 µM | 99.6% |
| COc1cc(O)cc([C@@H]2C[C@]3(C[C@H](C)N2)OCCc2cc(Cl)sc23)c1 (racemic) [Compound 137] | 6.30 to 7.30 | 84.5% | 6.30 to 7.30 | – | – | – | 98.7% |
| C[C@H]1C[C@@]2(C[C@@H](c3cccc(S(C)(=O)=O)c3)N1)OCCc1cc(Cl)sc12 (racemic) [Compound 146] | 6.30 to 7.30 | 88% | 6.30 to 7.30 | – | – | – | – |
| Cc1cccc([C@@H]2C[C@]3(C[C@H](C)N2)OCCc2cc(Cl)sc23)n1 (racemic) [Compound 126] | 6.30 to 7.30 | 115% | 6.30 to 7.30 | – | – | – | 99.4% |
| C[C@H]1C[C@@]2(C[C@@H](c3c[nH]nn3)N1)OCCc1cc(Cl)sc12 (racemic) [Compound 72] | > 7.30 | 118% | > 7.30 | – | – | – | – |
| C[C@H]1C[C@@]2(C[C@@H](c3cccc(NS(C)(=O)=O)c3)N1)OCCc1cc(Cl)sc12 (racemic) [Compound 115] | 6.30 to 7.30 | 100% | > 7.30 | – | – | – | 99.3% |
| C[C@H]1C[C@@]2(C[C@@H](c3cc(C4CC4)n[nH]3)N1)OCCc1cc(Cl)sc12 (racemic) [Compound 120] | 6.30 to 7.30 | 91.5% | > 7.30 | – | – | – | 99.0% |
| CCc1c[nH]c([C@@H]2C[C@]3(C[C@H](C)N2)OCCc2cc(Cl)sc23)n1 (racemic) [Compound 153] | < 6.30 | 89.5% | 6.30 to 7.30 | – | – | – | 96.0% |
| Cc1nc([C@@H]2C[C@]3(C[C@H](C)N2)OCCc2cc(Cl)sc23)[nH]c1C (racemic) [Compound 150] | < 6.30 | 87% | 6.30 to 7.30 | – | – | – | 96.3% |
| C[C@H]1C[C@@]2(C[C@@H](c3c[nH]c(C4CC4)n3)N1)OCCc1cc(Cl)sc12 (racemic) [Compound 130] | 6.30 to 7.30 | 102% | 6.30 to 7.30 | – | – | – | 99.0% |
| COC(=O)[C@@H]1C[C@]2(C[C@H](C)N1)OCCc1cc(Cl)sc12 [Compound 209, methyl (2′S,6′S,7S)-2-chloro-6′-methyl-spiro[4,5-dihydrothieno[2,3-c]pyran-7,4′-piperidine]-2′-carboxylate] | 6.30 to 7.30 | 100% | < 6.30 | – | – | – | – |
| C[C@H]1C[C@@]2(C[C@@H](c3ccc4oc(=O)n(C)c4c3)N1)OCCc1cc(Cl)sc12 (racemic) [Compound 28] | > 7.30 | 104% | > 7.30 | – | – | < 0.05 µM | 100.0% |
| C[C@H]1C[C@@]2(C[C@@H](c3cn(C)nn3)N1)OC[C@H](O)c1cc(Cl)sc12 [Compound 177, (2′S,4R,6′S,7S)-2-chloro-2′-methyl-6′-(1-methyltriazol-4-yl)spiro[4,5-dihydrothieno[2,3-c]pyran-7,4′-piperidine]-4-ol] | 6.30 to 7.30 | 107% | – | – | – | – | – |
| Cc1c(Cn2cc([C@@H]3C[C@]4(C[C@H](C)N3)OC[C@@H](O)c3cc(Cl)sc34)nn2)cnn1C [Compound 285] | – | – | 6.30 to 7.30 | – | – | – | 98.0% |
| CC(C)C(=O)NCCn1cc([C@@H]2C[C@]3(C[C@H](C)N2)OCC(F)(F)c2cc(Cl)sc23)nn1 [Compound 345] | – | – | > 7.30 | – | – | – | 99.0% |
| C[C@H]1C[C@@]2(C[C@@H](c3cn(CC4CCCCO4)nn3)N1)OC[C@@H](O)c1cc(Cl)sc12 (stereo partly shown) [Compound 227] | – | – | 6.30 to 7.30 | – | – | – | 100.0% |
| C[C@H]1C[C@@]2(C[C@@H](c3cn(Cc4ccc(O)cc4)nn3)N1)OCC(F)(F)c1cc(Cl)sc12 [Compound 302] | – | – | 6.30 to 7.30 | – | – | – | 94.0% |
| COCC1(Cn2cc([C@@H]3C[C@]4(C[C@H](C)N3)OC[C@@H](O)c3cc(Cl)sc34)nn2)CC1 [Compound 270] | – | – | 6.30 to 7.30 | – | – | – | 93.0% |
